US12667735B2, “Methods for reducing pain during photodynamic therapy of actinic keratosis” (Sun Pharmaceutical Industries, Inc., priority 2019, dated 2026)
“And” between values parts separate entries of the source, which are not always exact repeats. Equal entries are not always repeated. “Also recorded” adds a separate entry of the source.

How the values were obtained:
[1] = Pain during blue light illumination (0 to 10 VAS); assay type: in vivo, human; settings: for Pain score (0-to-10 VAS) during illumination / Pain score (0-to-10 VAS) during illumination, Mean: individual patients; for Pain score (0-to-10 VAS) during illumination, Mean: mean over time points; for Mean VAS pain score during illumination: all 23 patients, linear mixed-effect model, 0-10 scale
Experimental: The term “Visual Analogue Scale for Pain (referred to as VAS pain score hereafter) as used herein, is defined as follows: An 11-point numerical pain scale wherein patients report a number (from 0 to 10) that most closely reflects the level of pain they are experiencing at that particular moment; 0 corresponds to no pain and 10 corresponds to the worst pain imaginable (Breivik, HaraldScandinavian Journal of Pain 2016; 11:150-152).
(§1) Several secondary endpoints were also measured. For pain assessment, patients were asked every 5 to 10 min during illumination to report their pain on a 0 to 10 visual-analog (VAS) scale. Erythema was recorded photographically at Day 1 and on Day 4 post PDT. A side effect profile was recorded by each patient in a daily home questionnaire to document the presence or absence of eleven different signs and symptoms in the 4 days immediately following PDT (see Table 2).
The primary endpoint was AK lesion reduction. […] Statistical significance was considered with a p-value <0.05.

[2] = tested on: actinic keratoses (AK) lesions of face and scalp; assay: AK lesion clearance, bilaterally controlled randomized clinical trial of ALA blue light PDT
[3] = Daily home questionnaire of side effects, first 4 days after PDT; assay type: in vivo, human; settings: Side A (test PDT)
Experimental: as §1

Pain score (0-to-10 VAS) during illumination ([1]; SIDE A (test PDT), 10 min during illumination, 30 min test PDT cohort): 0 (3×) and 2 and 3 and 1 | Pain score (0-to-10 VAS) during illumination ([1]; SIDE A (test PDT), 10 min during illumination, 45 min test PDT cohort): 0 (5×) and 1 (3×) | Pain score (0-to-10 VAS) during illumination ([1]; SIDE A (test PDT), 10 min during illumination, 60 min test PDT cohort): 0 | Pain score (0-to-10 VAS) during illumination ([1]; SIDE A (test PDT), 20 min during illumination, 30 min test PDT cohort): 0 (2×) and 2 and 5 and 1 (2×) | Pain score (0-to-10 VAS) during illumination ([1]; SIDE A (test PDT), 20 min during illumination, 45 min test PDT cohort): 0 (6×) and 1 (2×) | Pain score (0-to-10 VAS) during illumination ([1]; SIDE A (test PDT), 20 min during illumination, 60 min test PDT cohort): 0 | Pain score (0-to-10 VAS) during illumination ([1]; SIDE A (test PDT), 30 min during illumination, 30 min test PDT cohort): 0 (2×) and 2 and 6 and 1 (2×) | Pain score (0-to-10 VAS) during illumination ([1]; SIDE A (test PDT), 30 min during illumination, 45 min test PDT cohort): 0 (7×) and 1 | Pain score (0-to-10 VAS) during illumination ([1]; SIDE A (test PDT), 30 min during illumination, 60 min test PDT cohort): 0 | Pain score (0-to-10 VAS) during illumination ([1]; SIDE A (test PDT), 40 min during illumination, 45 min test PDT cohort): 0 (6×) and 1 (2×) | Pain score (0-to-10 VAS) during illumination ([1]; SIDE A (test PDT), 40 min during illumination, 60 min test PDT cohort): 0 | Pain score (0-to-10 VAS) during illumination ([1]; SIDE A (test PDT), 50 min during illumination): 0 | Pain score (0-to-10 VAS) during illumination, Mean ([1]; SIDE A (test PDT), 30 min test PDT cohort): 0.0 (3×) and 2.0 and 4.7 and 0.7 and 1.0 | Pain score (0-to-10 VAS) during illumination, Mean ([1]; SIDE A (test PDT), 45 min test PDT cohort): 0.0 (4×) and 0.3 (2×) and 1.0 and 0.5 | Pain score (0-to-10 VAS) during illumination, Mean ([1]; SIDE A (test PDT), 60 min test PDT cohort): 0.0 (5×) and 0.8 (2×) and 0.2 | Pain score (0-to-10 VAS) during illumination ([1]; SIDE B (control PDT), 5 min during illumination, 30 min test PDT cohort): 2 and 10 (2×) and 4 and 5 and 3 | Pain score (0-to-10 VAS) during illumination ([1]; SIDE B (control PDT), 5 min during illumination, 45 min test PDT cohort): 8 and 4 (3×) and 3 and 2 and 5 and 1 | Pain score (0-to-10 VAS) during illumination ([1]; SIDE B (control PDT), 5 min during illumination, 60 min test PDT cohort): 1 | Pain score (0-to-10 VAS) during illumination ([1]; SIDE B (control PDT), 10 min during illumination, 30 min test PDT cohort): 1 and 7 and 5 and 4 and 3 (2×) | Pain score (0-to-10 VAS) during illumination ([1]; SIDE B (control PDT), 10 min during illumination, 45 min test PDT cohort): 3 (3×) and 2 and 4 and 5 (2×) and 1 | Pain score (0-to-10 VAS) during illumination ([1]; SIDE B (control PDT), 10 min during illumination, 60 min test PDT cohort): 1 | Pain score (0-to-10 VAS) during illumination ([1]; SIDE B (control PDT), 15 min during illumination, 30 min test PDT cohort): 0 and 5 and 6 and 4 and 1 and 3 | Pain score (0-to-10 VAS) during illumination ([1]; SIDE B (control PDT), 15 min during illumination, 45 min test PDT cohort): 0 and 2 (3×) and 1 and 3 and 4 and 5 | Pain score (0-to-10 VAS) during illumination ([1]; SIDE B (control PDT), 15 min during illumination, 60 min test PDT cohort): 0 | Mean VAS pain score during illumination ([1]; Side A (test PDT)): 0.52 | Mean VAS pain score during illumination ([1]; Side B (control PDT)): 3.57 | Pain during illumination, test PDT side versus control side ([1]; substantially no pre-illumination gap versus 1 hour gap): drastically reduced
Structure (SMILES): NCC(=O)CCC(=O)O [ALA, 5-aminolevulinic acid]
Pain score (0-to-10 VAS) during illumination, Mean ([1]; SIDE B (control PDT), 30 min test PDT cohort): 1.0 and 7.3 and 7.0 and 4.0 and 3.0 (2×) and 4.7 | Pain score (0-to-10 VAS) during illumination, Mean ([1]; SIDE B (control PDT), 45 min test PDT cohort): 3.7 (2×) and 3.0 and 2.7 and 1.7 and 4.3 and 5.0 and 1.3 | Pain score (0-to-10 VAS) during illumination, Mean ([1]; SIDE B (control PDT), 60 min test PDT cohort): 0.7 and 6.3 and 4.3 and 1.0 and 3.7 (2×) and 6.7 and 0.3 | Clinical response, Difference (A − B) ([2]; Face, 30 min cohort): −1.7% | Clinical response (% reduction in AK counts at 3 months) ([2]; Face, 30 min cohort, Side A (test PDT, 30 min blue light)): 55.4% | Clinical response (% reduction in AK counts at 3 months) ([2]; Face, 30 min cohort, Side B (control PDT)): 57.1% | Clinical response, Difference (A − B) ([2]; Face, 45 min cohort): 1.1% | Clinical response (% reduction in AK counts at 3 months) ([2]; Face, 45 min cohort, Side A (test PDT, 45 min blue light)): 59.8% | Clinical response (% reduction in AK counts at 3 months) ([2]; Face, 45 min cohort, Side B (control PDT)): 58.6% | Clinical response, Difference (A − B) ([2]; Face, 60 min cohort): −3.8% | Clinical response (% reduction in AK counts at 3 months) ([2]; Face, 60 min cohort, Side A (test PDT, 60 min blue light)): 57.5% | Clinical response (% reduction in AK counts at 3 months) ([2]; Face, 60 min cohort, Side B (control PDT)): 61.2% | Clinical response, Difference (A − B) ([2]; Face, all patients): −1.4% | Clinical response (% reduction in AK counts at 3 months) ([2]; Face, all patients, Side A (test PDT, substantially no pre-illumination gap)): 57.7% | Clinical response (% reduction in AK counts at 3 months) ([2]; Face, all patients, Side B (control PDT, 1 hr pre-illumination gap, blue light 1000 sec)): 59.1% | Clinical response, Difference (A − B) ([2]; Scalp, 30 min cohort): −1.2% | Clinical response (% reduction in AK counts at 3 months) ([2]; Scalp, 30 min cohort, Side A (test PDT, 30 min blue light)): 44.8% | Clinical response (% reduction in AK counts at 3 months) ([2]; Scalp, 30 min cohort, Side B (control PDT)): 46.0% | Clinical response, Difference (A − B) ([2]; Scalp, 45 min cohort): 3% | Clinical response (% reduction in AK counts at 3 months) ([2]; Scalp, 45 min cohort, Side A (test PDT, 45 min blue light)): 41.2% | Clinical response (% reduction in AK counts at 3 months) ([2]; Scalp, 45 min cohort, Side B (control PDT)): 38.2% | Clinical response, Difference (A − B) ([2]; Scalp, 60 min cohort): 3.7% | Clinical response (% reduction in AK counts at 3 months) ([2]; Scalp, 60 min cohort, Side A (test PDT, 60 min blue light)): 45.2% | Clinical response (% reduction in AK counts at 3 months) ([2]; Scalp, 60 min cohort, Side B (control PDT)): 41.5% | Clinical response, Difference (A − B) ([2]; Scalp, all patients): 1.9% | Clinical response (% reduction in AK counts at 3 months) ([2]; Scalp, all patients, Side A (test PDT, substantially no pre-illumination gap)): 43.8% | Clinical response (% reduction in AK counts at 3 months) ([2]; Scalp, all patients, Side B (control PDT, 1 hr pre-illumination gap, blue light 1000 sec)): 41.9% | Clinical efficacy (lesion clearance), test PDT versus control PDT ([2]; face and scalp, 3 months, test of non-inferiority): nearly identical on both sides of the face and scalp; also recorded: statistically indistinguishable | Bleeding ([3]; DAY 1): 0, 0 percentage of patients | Blisters ([3]; DAY 1): 13, 13 percentage of patients | Burning ([3]; DAY 1): 65, 65 percentage of patients | Crusting ([3]; DAY 1): 9 percentage of patients | Itching ([3]; DAY 1): 43, 43 percentage of patients | Open sores ([3]; DAY 1): 0, 0 percentage of patients | Peeling ([3]; DAY 1): 4 percentage of patients | Redness ([3]; DAY 1): 91, 91 percentage of patients | Stinging ([3]; DAY 1): 65, 65 percentage of patients | Swelling ([3]; DAY 1): 26 percentage of patients | Pain Score Mean (0-10 visual-analog scale) ([3]; DAY 1, average of 23 patients): 3.0 | Bleeding ([3]; DAY 2): 17 percentage of patients | Blisters ([3]; DAY 2): 4 percentage of patients | Burning ([3]; DAY 2): 52, 52 percentage of patients | Crusting ([3]; DAY 2): 9 percentage of patients | Itching ([3]; DAY 2): 74, 74 percentage of patients | Open sores ([3]; DAY 2): 9, 9 percentage of patients
